Among the data in US10081629B2, “Amide derivatives and pharmaceutically acceptable salts thereof, preparation method thereof and medicinal application thereof” (Shanghai Hengrui Pharmaceutical Co., Ltd., priority 2014, dated 2018) are IC50 values, retold here.

Assay [1] deals with human mPGES1 (Homo sapiens (Human), UniProt O14684). The assay can be described thus: Inhibition activity for human mPGES1 (enzyme assay, PGE2 HTRF). The format is biochemical. As to conditions: membrane protein from HEK-293 F transfected with human mPGES1. The procedure: The method described here is used for determining the inhibition activity of the present compounds for human mPGES1.
• 1. PGE2 Assay kit (Cisbio, #62P2APEB) • 2. Prostaglandin H2 (Sigma, #P7867-1MG) • 3. FlexStation3 microplate reader. II. Experimental Procedure • 1. Obtaining the membrane proteins of mPGES1 enzyme
The cell density of HEK-293 F was grown to 6×10^5 per milliliter and was transferred with the plasmid containing human mPGES1 gene by transfection reagent PEI the next day. The cells were continuously cultured for 72 hours at 37° C. with shaking. After centrifuging at 1100 g for 5 minutes, the cells were harvested. After ultrasonication in an ice bath and centrifugation at 5000 g for 10 minutes, the supernatant was obtained. The supernatant was centrifuged at 100000 g for 1 hour to obtain a precipitate. The precipitate was resuspended with storage buffer containing 10% glycerinum, subpackaged and frozen rapidly under liquid nitrogen, and stored at −80° C. • 2. mPGES1 enzyme assay
mPGES1 was diluted with assay buffer and added into plate at 49 μL/well supplemented with 1 μL of compound (the final concentration of each compound at seven gradient concentrations was 10000 nM, 1000 nM, 100 nM, 10 nM, 1 nM, 0.1 nM and 0.01 nM). […] Then, each well was added with 53.8 μL of 6 mg/mL SnCl2 to quench the reaction. The sample was diluted with dilute buffer at 1:400. 10 μl of diluted sample, 5 μL PGE2-d2 and 5 μL anti-PGE2 Cryptate were added to a black 384-well plate, and incubated at 4° C. overnight. HTRF was determined using Flexstation, and the IC50 of the compounds was obtained by data processing software.
The inhibition activity of the present compounds on mPGES1 was tested by the assay described above.

The test system of assay [2] is secretion of PGE2 by A549 cells stimulated with IL-1β. Description: Inhibition of the secretion of PGE2 by A549 cells stimulated with IL-1β. It is filed as cell-based. As to conditions: IL-1β 0.2 ng/mL, 24 hours. The text has this:
The method described here was used for determining the inhibition activity of the present compounds on the secretion of PGE2 by A549 cells stimulated with IL-1β.
• 1. PGE2 Assay kit (Cisbio, #62P2APEB) • 2. IL-1β (Peprotech, # AF-200-01B) • 3. Cell line: A549 (ATCC: CCL-185) • 4. FlexStation3 microplate reader. II. Experimental Procedure
On the first day, A549 cells were inoculated in a 96-well plate at 40000/well. On the second day, the culture medium in the 96-well plate was removed and then added with 90 μL of compound diluted with culture medium (the concentration of each compound at seven gradient concentrations was 11111 nM, […], 1.11 nM, 0.11 nM and 0.011 nM). The cells were incubated for 30 minutes at 37° C. in an incubator, and then added with IL-1β to a final concentration of 0.2 ng/mL. Then, the cells were incubated for another 24 hours at 37° C. On the third day, 10 μl of supernatant, 5 μL of PGE2-d2 and 5 μL of anti-PGE2 Cryptate were added into a black 384-well plate, and then incubated at 4° C. overnight. HTRF was determined using Flexstation, and the IC50 of the compounds was obtained by data processing software.
The inhibition activity of the present compounds on the secretion of PGE2 by A549 cells stimulated with IL-1β was determined by the assay described above.

Sequence of human mPGES1 (O14684 whole entry): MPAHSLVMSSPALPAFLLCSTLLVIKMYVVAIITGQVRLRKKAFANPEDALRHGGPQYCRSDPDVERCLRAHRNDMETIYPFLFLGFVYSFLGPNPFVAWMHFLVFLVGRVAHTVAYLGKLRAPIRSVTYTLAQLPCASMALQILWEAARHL

The IC50 is the point on the concentration scale where inhibition reaches its midpoint. A high value points to weaker potency in that assay. For `CC(C)C(=O)NCc1cnc(C(F)F)c(C(=O)Nc2ccc3oc(-c4ccc(Cl)cc4)nc3c2)c1` [Example 45, N-(2-(4-Chlorophenyl)benzo[d]oxazol-5-yl)-2-(difluoromethyl)-5-((2-methylpropanoylamino)methyl)nicotinamide], the IC50 was determined as 49.4 nM in assay [1] and 25.9 nM in assay [2] (Homo sapiens, A549). With `CCn1c(-c2ccc(F)cc2)cc2cc(NC(=O)c3cc(CNC(=O)C(C)(C)C)ccc3Br)ccc21` [Example 7, 2-Bromo-N-(1-ethyl-2-(4-fluorophenyl)-1H-indol-5-yl)5-((2,2-dimethylpropanoylamino)methyl)-benzamide], in assay [2] (Homo sapiens, A549), the IC50 was determined as 10.4 nM. On to `CC(C)(C)C(=O)NCc1ccc(Cl)c(C(=O)Nc2ccc3oc(-c4ccc(C(F)(F)F)cc4)nc3c2)c1` [Example 22, 2-Chloro-5-((2,2-dimethylpropanoylamino)methyl)-N-(2-(4-(trifluoromethyl)phenyl)benzo[d]oxazol-5-yl)benzamide], for which the IC50 in assay [1] amounted to 6.69 nM; in assay [2] (Homo sapiens, A549), 38.8 nM. For `CCn1c(-c2ccc(C(F)(F)F)cc2)cc2cc(NC(=O)c3cc(CNC(=O)C(C)C)cnc3C(F)F)ccc21` [Example 1, 2-(difluoromethyl)-N-(1-ethyl-2-(4-(trifluoromethyl)phenyl)-1H-indol-5-yl)-5-((2-methylpropanoylamino)methyl)nicotinamide], the IC50 came to 8.26 nM in assay [1] and 3.55 nM in assay [2] (Homo sapiens, A549). The corresponding values for `CC1(C(=O)NCc2cnc(C(F)F)c(C(=O)Nc3ccc4oc(-c5ccc(C(F)(F)F)cc5)nc4c3)c2)CC1` [Example 43, 2-(Difluoromethyl)-5-(((1-methylcyclopropanecarbonyl)amino)methyl)-N-(2-(4-(trifluoromethyl)phenyl)benzo[d]oxazol-5-yl)nicotinamide] are 16 nM and 58.2 nM.

Consider `CC(C)(C)C(=O)NCc1ccc(Cl)c(C(=O)Nc2ccc3c(c2)CN(c2ccc(C(F)(F)F)cc2)C3)c1` [Example 25, 2-Chloro-5-((2,2-dimethylpropanoylamino)methyl)-N-(2-(4-(trifluoromethyl)phenyl)isoindolin-5-yl)benzamide], for which the IC50 was 11.9 nM in assay [1] and 47.6 nM in assay [2] (Homo sapiens, A549).

Turning to `CC(C)(F)C(=O)NCc1cnc(C(F)F)c(C(=O)Nc2ccc3c(c2)CN(c2cccc(C(F)(F)F)c2)C3)c1` [Example 49, 2-(Difluoromethyl)-5-(((2-fluoro-2-methyl-propanoyl)amino)methyl)-N-(2-(3-(trifluoromethyl)phenyl)isoindolin-5-yl)nicotinamide], the IC50 in assay [1] was 8.29 nM; in assay [2] (Homo sapiens, A549), 24 nM. `CC(C)C(=O)NCc1cnc(C(F)F)c(C(=O)Nc2ccc3c(c2)CN(c2ccc(C(F)(F)F)cc2)C3)c1` [Example 40, 2-(Difluoromethyl)-5-((2-methylpropanoylamino)methyl)-N-(2-(4-(trifluoromethyl)phenyl)isoindolin-5-yl)nicotinamide]: the IC50 was 22.4 nM in assay [1] and 16.9 nM in assay [2] (Homo sapiens, A549). Take `CCn1cc(-c2ccc(F)cc2)c2cc(NC(=O)c3cc(CNC(=O)C(C)(C)C)ccc3Br)ccc21` [Example 6, 2-Bromo-N-(1-ethyl-3-(4-fluorophenyl)-1H-indol-5-yl)-5-((2,2-dimethylpropanoylamino)methyl)-benzamide]: in assay [2] (Homo sapiens, A549), the IC50 was 68.1 nM. Regarding `CCn1c(-c2ccccc2Cl)cc2cc(NC(=O)c3cc(CNC(=O)C(C)(C)F)cnc3C(F)F)ccc21` [Example 19, N-(2-(2-Chlorophenyl)-1-ethyl-1H-indol-5-yl)-2-(difluoromethyl)-5-(((2-fluoro-2-methyl-propanoyl)amino)methyl)nicotinamide], the IC50 came to 8.12 nM in assay [1] and 42.6 nM in assay [2] (Homo sapiens, A549). In assay [2] (Homo sapiens, A549), `CCn1c(-c2ccc(Cl)cc2)nc2cc(NC(=O)c3cc(CNC(=O)C(C)(C)C)ccc3Cl)ccc21` [Example 52, 2-Chloro-N-(2-(4-chlorophenyl)-1-ethyl-1H-benzo[d]imidazol-5-yl)-5-((2,2-dimethylpropanoylamino)methyl)benzamide] registered an IC50 of 55.2 nM. On to `CC(C)(C)C(=O)NCc1ccc(Cl)c(C(=O)Nc2ccc3nn(-c4ccc(Cl)cc4)cc3c2)c1` [Example 16, 2-Chloro-N-(2-(4-chlorophenyl)-2H-indazol-5-yl)-5-((2,2-dimethylpropanoylamino)methyl)benzamide], for which the IC50 in assay [1] amounted to 9.31 nM; in assay [2] (Homo sapiens, A549) it was 26.2 nM. The corresponding values for `Cn1c(-c2ccc(C(F)(F)F)cc2)cc2cc(NC(=O)c3cc(CNC(=O)C(C)(C)F)cnc3C(F)F)ccc21` [Example 15, 2-(Difluoromethyl)-5-(((2-fluoro-2-methyl-propanoyl)amino)methyl)-N-(1-methyl-2-(4-(trifluoromethyl)phenyl)-1H-indol-5-yl)nicotinamide] are 23.4 nM and 33.3 nM. The corresponding values for `CC(C)(F)C(=O)NCc1cnc(C(F)F)c(C(=O)Nc2ccc3oc(-c4cccc(C(F)(F)F)c4)nc3c2)c1` [Example 56, 2-(Difluoromethyl)-5-(((2-fluoro-2-methyl-propanoyl)amino)methyl)-N-(2-(3-(trifluoromethyl)phenyl)benzo[d]oxazol-5-yl)nicotinamide] are 7.74 nM and 27.5 nM. In the case of `CC(C)(F)C(=O)NCc1cnc(C(F)F)c(C(=O)Nc2ccc3oc(-c4ccc(C(F)(F)F)cc4)nc3c2)c1` [Example 23, 2-(Difluoromethyl)-5-(((2-fluoro-2-methyl-propanoyl)amino)methyl)-N-(2-(4-(trifluoromethyl)phenyl)benzo[d]oxazol-5-yl)nicotinamide], the IC50 in assay [1] came out at 4.73 nM; in assay [2] (Homo sapiens, A549) it was 49 nM. On to `CCn1c(-c2ccc(F)cc2)cc2cc(NC(=O)c3cc(CNC(=O)C(C)(C)C)ccc3Cl)cnc21` [Example 4, 2-Chloro-N-(1-ethyl-2-(4-fluorophenyl)-1H-pyrrolo[2,3-b]pyridin-5-yl)-5-((2,2-dimethylpropanoylamino)methyl)-benzamide], for which half-maximal inhibition in assay [2] (Homo sapiens, A549) (IC50) was put at 26.9 nM. In assay [1], `CCn1c(-c2ccc(Cl)cc2)cc2cc(NC(=O)c3cc(CNC(=O)C4(C)CC4)cnc3C(F)F)ccc21` [Example 42, N-(2-(4-Chlorophenyl)-1-ethyl-1H-indol-5-yl)-2-(difluoromethyl)-5-(((1-methylcyclopropanecarbonyl)amino)methyl)nicotinamide] returned an IC50 of 7.21 nM. Take `Cn1c(-c2ccc(Cl)cc2)cc2cc(NC(=O)c3cc(CNC(=O)C(C)(C)F)cnc3C(F)F)ccc21` [Example 18, N-(2-(4-Chlorophenyl)-1-methyl-1H-indol-5-yl)-2-(difluoromethyl)-5-(((2-fluoro-2-methyl-propanoyl)amino)methyl)nicotinamide]: the results for the IC50 in assay [1] and in assay [2] were 5.15 nM and 17.2 nM, respectively. With `Cn1c(-c2ccc(Cl)cc2)nc2cc(NC(=O)c3cc(CNC(=O)C(C)(C)C)ccc3Cl)ccc21` [Example 55, 2-Chloro-N-(2-(4-chlorophenyl)-1-methyl-1H-benzo[d]imidazol-5-yl)-5-((2,2-dimethylpropanoylamino)methyl)benzamide], the IC50 in assay [1] is 29.8 nM. On to `CC(C)(F)C(=O)NCc1cnc(C(F)F)c(C(=O)Nc2ccc3c(c2)cc(-c2ccc(Cl)cc2)n3[C@@H]2CCOC2)c1` [Example 47, (R)-N-(2-(4-Chlorophenyl)-1-(tetrahydrofuran-3-yl)-1H-indol-5-yl)-2-(difluoromethyl)-5-(((2-fluoro-2-methyl-propanoyl)amino)methyl)nicotinamide], for which the IC50 came out at 5.72 nM in assay [1] and 18.9 nM in assay [2] (Homo sapiens, A549).

Consider `CC1(C(=O)NCc2ccc(Cl)c(C(=O)Nc3ccc4oc(-c5ccc(C(F)(F)F)cc5)nc4c3)c2)CC1` [Example 41, 2-Chloro-5-(((1-methylcyclopropanecarbonyl)amino)methyl)-N-(2-(4-(trifluoromethyl)phenyl)benzo[d]oxazol-5-yl)benzamide], for which, in assay [1], the IC50 is 25.6 nM.
